In patent publication US9458106B2, “Phenyl-pyridine/pyrazine amides for the treatment of cancer” (Hoffmann-La Roche Inc., priority 2013, dated 2016):

Assays:
[1] = molecular target: T1, CDK8/Cyclin C (Homo sapiens, UniProt P49336); test: CDK8/Cyclin C LANCE TR-FRET kinase assay; format: biochemical; details: CDK8/Cyclin C 10 nM, ATP 24 μM, Ulight-GS peptide 80 nM, 37° C. 30 mins
T1 construct: purchased Invitrogen PV4402
From the text: CDK8/Cyclin C LANCE TR-FRET Kinase Assay
The biological activity of the compounds of the invention can be determined using the assay described below.
CDK8/Cyclin C protein was obtained from Invitrogen, cat #PV4402. ULight-Glycogen Synthase (Ulight-GS) peptide with sequence PASVPPSPSLSRHSSPHQ(pS)ED, and Europium-anti-phospho Glycogen Synthase (Ser641) [Eu-anti-P-GS (Ser641)] were obtained from Perkin Elmer, cat #TRF0131-M and cat #TRF0220. Adenosine-5′-triphosphate (ATP) was obtained from Invitrogen, cat #PV3227.
A mixture of (1) a compound of formula I, (2) substrate [Ulight-GS peptide (80 nM) and ATP (24 μM)], and (3) CDK8/Cyclin C (10 nM) in reaction buffer (50 mM Hepes, pH7.0, 10 mM MgCl2, 1 mM EGTA, 0.2 mg/mL BSA, 0.8 mM DTT) were incubated at 37° C. for 30 mins. Then, [Eu-anti-P-GS (Ser641)] (1.5 nM) was added. Following incubation at RT for 30 mins, the TR-FRET signals were detected using Envision reader (Ex 340 nm, Em 615 nm and 665 nm) from Perkin Elmer. The reactivity in percentage of inhibition or dose response was analyzed with GraphPad Prism 5 (GraphPad Software).

[2] = system: HCT116 (colorectal cancer); test: In vitro cell proliferation assay (CCK-8), HCT116; format: cell-based; details: Homo sapiens, HCT-116, HCT116 cells, 72 hours
Method: (§1) In Vitro Cell Proliferation Assay
(§2) Cells were seeded on 96-well plates at 5×10^3 cells per well and precultured for 24 hours. The cells were treated with serial diluted compounds and cultured for 72 hours. Then all media was discarded and after that, 100 μL 1:10 (v/v) Cell Counting Kit-8 (CCK-8)-culture media solution was added to the wells. Plate was developed for 2 hrs in an incubator, and the absorbance was measured at 450 nm wavelengths with SpectraMAX190 (MDS, Sunnyvale, Calif.). The inhibition rate (IR) of the tested compounds was determined with following formula: IR (%)=(ODDMSO−ODcompound)/ODDMSO×100%. The concentration corresponding to 50% IR (IC50) was determined with plot curve of IR against tested compound concentrations with SoftMax Pro.

[3] = system: AGS (gastric cancer); test: In vitro cell proliferation assay (CCK-8), AGS; format: cell-based; details: Homo sapiens, AGS cells, 72 hours
Method: as §1, §2

[4] = system: DLD-1 (colorectal cancer); test: In vitro cell proliferation assay (CCK-8), DLD-1; format: cell-based; details: Homo sapiens, DLD-1 cells, 72 hours
Method: as §1, §2

T1 sequence (P49336 whole entry): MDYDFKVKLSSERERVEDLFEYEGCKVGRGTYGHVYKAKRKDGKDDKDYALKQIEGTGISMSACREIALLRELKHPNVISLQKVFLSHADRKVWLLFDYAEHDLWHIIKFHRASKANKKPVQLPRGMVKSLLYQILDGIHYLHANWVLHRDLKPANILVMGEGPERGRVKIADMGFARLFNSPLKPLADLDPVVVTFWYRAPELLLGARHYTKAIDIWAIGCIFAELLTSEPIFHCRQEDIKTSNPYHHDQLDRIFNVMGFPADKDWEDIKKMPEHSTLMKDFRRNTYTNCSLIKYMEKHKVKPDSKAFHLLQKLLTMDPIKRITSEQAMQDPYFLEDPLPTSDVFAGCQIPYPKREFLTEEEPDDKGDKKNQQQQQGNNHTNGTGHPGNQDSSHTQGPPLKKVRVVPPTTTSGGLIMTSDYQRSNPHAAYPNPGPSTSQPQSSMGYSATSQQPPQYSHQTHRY
T1 sequence (P24863 whole entry partner): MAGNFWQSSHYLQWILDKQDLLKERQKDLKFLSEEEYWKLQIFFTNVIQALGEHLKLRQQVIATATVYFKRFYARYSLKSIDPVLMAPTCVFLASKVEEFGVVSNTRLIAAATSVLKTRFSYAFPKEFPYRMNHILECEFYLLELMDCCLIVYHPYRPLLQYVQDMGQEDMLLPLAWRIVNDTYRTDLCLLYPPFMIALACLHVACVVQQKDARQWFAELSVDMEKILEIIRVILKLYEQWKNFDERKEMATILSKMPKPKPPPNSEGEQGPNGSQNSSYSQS

IC50 [1] [nM] | Structure (SMILES) | also measured
85.4 | NC(=O)C(Nc1cncc(-c2cc(Cl)ccc2F)c1)c1cccs1 (centres unmarked) [Example 25, 2-[5-(5-Chloro-2-fluoro-phenyl)-pyridin-3-ylamino]-2-thiophen-2-yl-acetamide] | 
828 | NC(=O)[C@@H](Nc1cncc(-c2cc(Cl)ccc2F)n1)c1ccccc1 [Example 31, (S)-2-[6-(5-Chloro-2-fluoro-phenyl)-pyrazin-2-ylamino]-2-phenyl-acetamide] | 
7740 | CS(=O)(=O)NC(=O)C(Nc1cncc(-c2cc(Cl)ccc2F)c1)c1ccccc1 (centres unmarked) [Example 22, N-{2-[5-(5-Chloro-2-fluoro-phenyl)-pyridin-3-ylamino]-2-phenyl-acetyl}-methanesulfonamide] | 
567 | COc1cccc(-c2cncc(N[C@@H](C(N)=O)c3ccccc3)n2)c1 [Example 33, (R)-2-[6-(3-Methoxy-phenyl)-pyrazin-2-ylamino]-2-phenyl-acetamide] | 
4.8 | NC(=O)C(Nc1cncc(-c2ccc(O)c(Cl)c2)n1)c1ccccc1 (centres unmarked) [Example 26, 2-[6-(3-Chloro-4-hydroxy-phenyl)-pyrazin-2-ylamino]-2-phenyl-acetamide] | 
123 | NC(=O)C(Nc1cncc(-c2cc(Cl)ccc2F)n1)c1ccccc1 (centres unmarked) [Example 29, 2-[6-(5-Chloro-2-fluoro-phenyl)-pyrazin-2-ylamino]-2-phenyl-acetamide] | 
430 | COc1cccc(-c2cncc(NC(C(N)=O)c3ccccc3)n2)c1 (centres unmarked) [Example 32, 2-[6-(3-Methoxy-phenyl)-pyrazin-2-ylamino]-2-phenyl-acetamide] | 
32.9 | NC(=O)[C@@H](Nc1cncc(-c2ccc(O)c(Cl)c2)n1)c1ccccc1 [Example 28, (S)-2-[6-(3-Chloro-4-hydroxy-phenyl)-pyrazin-2-ylamino]-2-phenyl-acetamide] | 
721 | NC(=O)C(Nc1cncc(-c2cc(Cl)c(F)cc2F)c1)c1ccccc1 (centres unmarked) [Example 23, 2-[5-(5-Chloro-2,4-difluoro-phenyl)-pyridin-3-ylamino]-2-phenyl-acetamide] | 
101 | COc1cccc(C(Nc2cncc(-c3cc(Cl)ccc3F)c2)C(N)=O)c1 (centres unmarked) [Example 21, 2-[5-(5-Chloro-2-fluoro-phenyl)-pyridin-3-ylamino]-2-(3-methoxy-phenyl)-acetamide] | 
54.7 | NC(=O)[C@H](Nc1cncc(-c2cc(Cl)ccc2F)n1)c1ccccc1 [Example 30, (R)-2-[6-(5-Chloro-2-fluoro-phenyl)-pyrazin-2-ylamino]-2-phenyl-aceamide] | 
2.8 | NC(=O)[C@H](Nc1cncc(-c2ccc(O)c(Cl)c2)n1)c1ccccc1 [Example 27, (R)-2-[6-(3-Chloro-4-hydroxy-phenyl)-pyrazin-2-ylamino]-2-phenyl-acetamide] | 
2110 | NC(=O)C(Nc1cncc(-c2cc(Cl)ccc2F)c1)c1ccccn1 (centres unmarked) [Example 24, 2-[5-(5-Chloro-2-fluoro-phenyl)-pyridin-3-ylamino]-2-pyridin-2-yl-acetamide] | 

Second part, the compound before the results:

Structure (SMILES) | IC50 [1] [nM] | also measured
NC(=O)C(Nc1cncc(-c2cc(Cl)ccc2F)c1)c1ccccc1F (centres unmarked) [Example 12, 2-[5-(5-Chloro-2-fluoro-phenyl)-pyridin-3-ylamino]-2-(2-fluoro-phenyl)-acetamide] | 38.5 | 
NC(=O)[C@H](Nc1cncc(-c2ccc(O)c(Cl)c2)c1)c1ccccc1 [Example 3, (R)-2-[5-(3-Chloro-4-hydroxy-phenyl)-pyridin-3-ylamino]-2-phenyl-acetamide] | 7.1 | IC50 [2]: 740 nM; IC50 [3]: 0.517 µM; IC50 [4]: 0.604 µM
NC(=O)C(Nc1cncc(-c2ccc(F)c(Cl)c2)c1)c1ccccc1 (centres unmarked) [Example 8, 2-[5-(3-Chloro-4-fluoro-phenyl)-pyridin-3-ylamino]-2-phenyl-acetamide] | 2340 | 
Cc1ccc(C(Nc2cncc(-c3cc(Cl)ccc3F)c2)C(N)=O)cc1 (centres unmarked) [Example 18, 2-[5-(5-Chloro-2-fluoro-phenyl)-pyridin-3-ylamino]-2-p-tolyl-acetamide] | 240 | 
NC(=O)C(Nc1cncc(-c2cncc(Cl)c2)c1)c1ccccc1 (centres unmarked) [Example 10, 2-(5′-Chloro-[3,3′]bipyridinyl-5-ylamino)-2-phenyl-acetamide] | 1390 | 
CCOc1ccc(F)c(-c2cncc(NC(C(N)=O)c3ccccc3)c2)c1 (centres unmarked) [Example 7, 2-[5-(5-Ethoxy-2-fluoro-phenyl)-pyridin-3-ylamino]-2-phenyl-acetamide] | 1100 | 
COc1ccc(F)c(-c2cncc(NC(C(N)=O)c3ccccc3)c2)c1 (centres unmarked) [Example 16, 2-[5-(2-Fluoro-5-methoxy-phenyl)-pyridin-3-ylamino]-2-phenyl-acetamide] | 264 | 
NC(=O)[C@@H](Nc1cncc(-c2ccc(O)c(Cl)c2)c1)c1ccccc1 [Example 4, (S)-2-[5-(3-Chloro-4-hydroxy-phenyl)-pyridin-3-ylamino]-2-phenyl-acetamide] | 471 | 
NC(=O)C(Nc1cncc(-c2ccc(O)c(Cl)c2)c1)c1ccccc1 (centres unmarked) [Example 2, 2-[5-(3-Chloro-4-hydroxy-phenyl)-pyridin-3-ylamino]-2-phenyl-acetamide] | 105 | 
NC(=O)C(Nc1cncc(-c2cc(Cl)ccc2F)c1)c1cc(F)ccc1F (centres unmarked) [Example 15, 2-[5-(5-Chloro-2-fluoro-phenyl)-pyridin-3-ylamino]-2-(2,5-difluoro-phenyl)-acetamide] | 123 | 
NC(=O)C(Nc1cncc(-c2cc(Cl)ccc2F)c1)c1ccsc1 (centres unmarked) [Example 17, 2-[5-(5-Chloro-2-fluoro-phenyl)-pyridin-3-ylamino]-2-thiophen-3-yl-acetamide] | 54.2 | 
Cc1ccccc1C(Nc1cncc(-c2cc(Cl)ccc2F)c1)C(N)=O (centres unmarked) [Example 11, 2-[5-(5-Chloro-2-fluoro-phenyl)-pyridin-3-ylamino]-2-o-tolyl-acetamide] | 35.9 | 
NC(=O)[C@H](Nc1cncc(-c2cc(Cl)ccc2F)c1)c1ccccc1 [Example 1, (R)-2-[5-(5-Chloro-2-fluoro-phenyl)-pyridin-3-ylamino]-2-phenyl-cetamide] | 91.7 | IC50 [2]: 2610 nM; IC50 [3]: 2.66 µM
Cc1cccc(C(Nc2cncc(-c3cc(Cl)ccc3F)c2)C(N)=O)c1 (centres unmarked) [Example 13, 2-[5-(5-Chloro-2-fluoro-phenyl)-pyridin-3-ylamino]-2-m-tolyl-acetamide] | 566 | 
COc1cc(-c2cncc(NC(C(N)=O)c3ccccc3)c2)c(F)cn1 (centres unmarked) [Example 9, 2-(5′-Fluoro-2′-methoxy-[3,4′]bipyridinyl-5-ylamino)-2-phenyl-acetamide] | 1150 | 
NC(=O)C(Nc1cncc(-c2cc(Cl)ccc2F)c1)c1ccc(Cl)cc1 (centres unmarked) [Example 20, 2-[5-(5-Chloro-2-fluoro-phenyl)-pyridin-3-ylamino]-2-(4-chloro-phenyl)-acetamide] | 1080 | 
NC(=O)C(Nc1cncc(-c2cc(Cl)ccc2F)c1)c1cccc(Cl)c1 (centres unmarked) [Example 19, 2-[5-(5-Chloro-2-fluoro-phenyl)-pyridin-3-ylamino]-2-(3-chloro-phenyl)-acetamide] | 432 | 
Cc1ccncc1-c1cncc(NC(C(N)=O)c2ccccc2)c1 (centres unmarked) [Example 5, 2-(4′-Methyl-[3,3′]bipyridinyl-5-ylamino)-2-phenyl-acetamide] | 133 | 
COc1cc(-c2cncc(NC(C(N)=O)c3ccccc3)c2)ccn1 (centres unmarked) [Example 6, 2-(2′-Methoxy-[3,4′]bipyridinyl-5-ylamino)-2-phenyl-acetamide] | 2170 | 
NC(=O)C(Nc1cncc(-c2cc(Cl)ccc2F)c1)c1ccccc1Cl (centres unmarked) [Example 14, 2-[5-(5-Chloro-2-fluoro-phenyl)-pyridin-3-ylamino]-2-(2-chloro-phenyl)-acetamide] | 11 | 
